We go through one molecule from ChEMBL document CHEMBL6114953, “De novo discovery of cyclic peptide inhibitors of IL-11 signaling” (Bioorg Med Chem, 2025).

The source made the active and inactive calls. No cut-off for these calls is given here. Where a SMILES comes first, the peptide text is derived from it. Bridges are numbered along the chain shown (N, C = ends).

For one assay, the species on record is Homo sapiens. Nature of the assay: Binding affinity to CAP chip-immobilized IL-6R (unknown origin) by SPR analysis.
Assay [1] can be described thus: Binding affinity to CAP chip-immobilized IL-6 (unknown origin) by SPR analysis. To be noted: Homo sapiens.
In assay [2] the target is T1, Interleukin-11 receptor subunit alpha (Homo sapiens) (UniProt Q14626).
T1 sequence (whole entry): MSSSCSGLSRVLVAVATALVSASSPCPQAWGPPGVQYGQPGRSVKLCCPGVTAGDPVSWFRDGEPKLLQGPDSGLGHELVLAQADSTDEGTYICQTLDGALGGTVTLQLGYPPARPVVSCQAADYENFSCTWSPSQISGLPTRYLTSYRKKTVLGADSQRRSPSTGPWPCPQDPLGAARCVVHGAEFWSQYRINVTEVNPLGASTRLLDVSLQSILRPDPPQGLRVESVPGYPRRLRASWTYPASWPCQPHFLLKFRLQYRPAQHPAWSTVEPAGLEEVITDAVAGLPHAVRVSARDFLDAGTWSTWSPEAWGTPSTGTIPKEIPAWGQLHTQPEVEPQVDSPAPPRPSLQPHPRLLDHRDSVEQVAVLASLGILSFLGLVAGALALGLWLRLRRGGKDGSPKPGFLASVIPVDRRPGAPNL
Nature of the assay: Binding affinity to CAP chip-immobilized biotinylated recombinant human IL-11Ralpha by SPR analysis.

Another assay concerns the target T2, Interleukin-11 (Homo sapiens, UniProt P20809).
T2 sequence (P20809 whole entry): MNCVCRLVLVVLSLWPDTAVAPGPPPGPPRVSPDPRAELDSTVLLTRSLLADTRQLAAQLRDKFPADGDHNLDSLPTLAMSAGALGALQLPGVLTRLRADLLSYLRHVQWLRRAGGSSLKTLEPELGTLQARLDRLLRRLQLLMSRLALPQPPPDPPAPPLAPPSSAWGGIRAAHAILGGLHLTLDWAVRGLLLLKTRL
Nature of the assay: Binding affinity to CAP chip-immobilized IL-11 (unknown origin) assessed as dissociation constant by SPR analysis.

The nature of assay [3]: Inhibition of his-tagged recombinant human IL-11 (22 to 199 residues) expressed in HEK293 cells/biotinylated recombinant human IL-11Ralpha (24 to 370 residues) expressed in HEK293 cells incubated for 1 hr by AlphaLISA assay. It is filed as cell-based.

As for `CC(C)[C@@H]1NC(=O)[C@H](CCCNC(=N)N)NC(=O)[C@@H]2CCCN2C(=O)[C@H](CC(=O)O)NC(=O)[C@H](Cc2ccc(O)cc2)NC(=O)[C@H](Cc2c[nH]c3ccccc23)NC(=O)CNC(=O)[C@@H](NC(=O)[C@H](Cc2ccc(O)cc2)NC(=O)[C@H](Cc2c[nH]c3ccccc23)NC(=O)[C@H](Cc2ccccc2)NC(=O)[C@H](CCC(=O)O)NC(=O)[C@@H](NC(=O)[C@@H](NC(=O)[C@H](CCC(=O)O)NC(=O)[C@H](C)N)[C@@H](C)O)C(C)C)CSSC[C@@H](C(=O)N[C@@H](CO)C(=O)N[C@@H](Cc2ccc(O)cc2)C(N)=O)NC(=O)CNC1=O` (H-AETVEFWYCGWYDPRVGCSY-NH2; disulfide 9-18), the outcome (in the assay listed under Homo sapiens; in assay [1]; in assay [2]) was inactive. For the same molecule, the Kd at Interleukin-11 worked out at 2600 nM. Further, the Ki in assay [3] worked out at 500 nM.
